# Source: the METLIN SMRT retention time set (Domingo-Almenara et al. 2019)
# Experiment: gradient 5% acetonitrile 3 min, to 50% in 2 min, to 85% in 15 min, held 3 min, 100 µL/min
# Conditions: column: Zorbax Extend-C18 2.1 x 50 mm; eluents: water / acetonitrile, 0.1% formic acid
# In short: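 Retention times come from adduct peaks that were picked computationally and then checked by hand. The standards, pure and pooled in mixtures of ~100 molecules, were run on a Zorbax Extend-C18 column (2.1 × 50 mm, 1.8 μm) at 100 μL/min with water and acetonitrile, each with 0.1% formic acid. Detection was by quadrupole time-of-flight mass spectrometry in positive and negative ionization mode, with a dead volume of 40 μL and a dwell volume of 900 μL.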
row,RP-LC retention time,Structure (SMILES)
1,670 s,CCOc1ccc(NC(=O)NCC(c2cccnc2)c2c[nH]c3ccccc23)cc1 (centres undefined)
2,892 s,Cc1ccc(-n2c(=O)n(C)c(=O)c3cc(C(=O)Nc4ccc5c(c4)OCCO5)cnc32)cc1
3,844 s,COc1ccccc1-n1ccn2cc(-c3ccc(F)cc3F)nc2c1=O
4,646 s,CC(=O)c1ccc(NC(=O)c2nc(N3CCCC3)c3c(C)cc(C)nc3n2)cc1
5,653 s,COCCc1noc(-c2cnc3nc(C)ccc3c2NCc2ccccc2C)n1
6,1160 s,Cc1ccc(-c2csc(-n3nc(C)c(CC(=O)NCc4ccccc4)c3C)n2)cc1
7,1070 s,Cc1ccc(-c2noc(Cc3nnc(-c4cccc(F)c4)o3)n2)cc1
8,618 s,CCCN1CCN(S(=O)(=O)c2cc(-c3nnc(C(C)C)o3)co2)CC1
9,880 s,O=C(c1ccc2c(c1)CCCN2S(=O)(=O)c1ccc(Cl)cc1)N1CCOCC1
10,708 s,Cn1nnc2cc(-c3noc(CNC(=O)c4ccccc4)n3)ccc21
11,712 s,CC(C)(C(N)=O)c1ccccc1
12,1190 s,COc1cc(C(=O)Nc2nc(-c3ccc(C)cc3)c(C)s2)c(Br)c(OC)c1OC
13,991 s,CC(C)(C)c1ccc(C(=O)N2CCC3(CC2)N=C(c2ccccc2)NO3)cc1
14,798 s,COCCn1ccc2c(OCC(=O)N(C(C)C)C(C)C)cccc2c1=O
15,848 s,O=C(NCC1CC1)c1cn(-c2cc(-c3nc(C4CC4)no3)ccn2)cn1
16,678 s,Cn1cc(C(=O)NC2CCCCC2)c2nn(-c3ccccc3)c(=O)c-2c1
17,612 s,O=C(CSc1ccc(N2CCCC(C(=O)NC3CC3)C2)nn1)Nc1ccc2c(c1)OCO2 (centres undefined)
18,595 s,CC(=O)N1CCc2cc(C(=O)N(C)C)ccc21
19,1210 s,CCOc1cccc(-c2noc(-c3nnn4c3COC(c3cccc(OC)c3)C4)n2)c1 (centres undefined)
20,808 s,CCN1C(=O)c2cccnc2Sc2cc(NC(=O)c3c(F)cccc3F)ccc21
21,941 s,COc1ccccc1-c1noc(C2CCCN2C(=O)Nc2cccc(Cl)c2)n1 (centres undefined)
22,1050 s,CCc1nc2c(c(=O)n1CC(=O)NCCCc1ccccc1)CN(Cc1ccccc1)CC2

row,RP-LC retention time,Structure (SMILES)
1,539 s,O=c1c(NCCc2cccnc2)nc2ccncc2n1Cc1ccccc1
2,823 s,CN1c2ccc(F)cc2C(=O)NC12CCN(C(=O)c1ccc(F)c(Cl)c1)CC2
3,693 s,Cc1cc(Nc2ccccc2)nc(N2CCN(C(=O)Nc3ccccc3)CC2)n1
4,814 s,CC(C)c1ccc(-c2noc(N3CCC(C(=O)N4CCN(C5CCCCC5)CC4)CC3)n2)cc1
5,581 s,Cc1c2cnn(-c3ccccc3)c(=O)c2c(C)n1C(C)C(=O)NCCCN1CCN(C)CC1 (centres undefined)
6,875 s,Cc1ccc(NC(=O)Cn2c(=O)n(-c3ccc(F)cc3)c3ncccc32)c(C)c1
7,556 s,Cc1cc(C)n(CC(=O)N2CCCn3ccnc3C2c2cnn(C)c2)n1 (centres undefined)
8,713 s,COc1ccc(NC(=O)Cn2cc(C(=O)N3CCCCC3)c(=O)c3ccc(C)nc32)cc1
9,563 s,NC(C(=O)N[C@@H]1C(=O)N2C(C(=O)O)=C(Cl)CS[C@H]12)c1ccccc1 (some centres undefined)
10,868 s,COc1cccc(S(=O)(=O)N2CCC([C@H]3[C@@H](OC)C(=O)N3C(C)C)CC2)c1
11,969 s,CCOc1ccc(-n2nnc3c(=O)n(C/C=C/c4ccccc4)cnc32)cc1
12,750 s,CC(C)(C)NS(=O)(=O)c1cncc(-c2cc(F)c3nc(N)nn3c2)c1
13,606 s,Cc1cc(C)cc(NC(=O)Cn2ncc3c(N4CCN(c5ccccn5)CC4)ncnc32)c1
14,1020 s,Cc1c(Cl)cccc1S(=O)(=O)N1CCC(C(=O)NCc2csc(-c3cccs3)n2)CC1
15,925 s,CCCN1C(=O)COc2ccc(-c3noc(-c4cccc(NC(C)=O)c4)n3)cc21
16,678 s,CCn1cnc(S(=O)(=O)N2CCC(C(=O)N3CCC(C)CC3)CC2)c1
17,959 s,Cc1cc(NC(=O)NCC(=O)N2CCc3ccccc32)ccc1Br
18,822 s,Cc1ccc(-n2c(=O)c3c(cc(C)n3C)n(CC(=O)Nc3cccc(C#N)c3)c2=O)cc1
19,1020 s,CCCCn1cc(S(=O)(=O)Nc2ccc(Cl)cc2)c2cccnc21
20,1170 s,CC(=O)Nc1onc(C)c1-c1ccc(C)c(S(=O)(=O)NCc2ccc(N(C)C)cc2)c1
21,703 s,Cc1ccc(NC(=O)Cn2cnc3nc(N4CCCC(C(=O)NC5CC5)C4)sc3c2=O)cc1F (centres undefined)
22,1010 s,Cn1nc(-c2nnc(-c3ccccc3F)o2)c2c1CCN(S(=O)(=O)c1ccc(Cl)s1)C2
